Test results published in ChEMBL document CHEMBL1201862, “PubChem BioAssay data set” (2004).
The source made the active and inactive calls.

Assays:
Format in all cases: functional
[1] = molecular target: Dual specificity protein kinase CLK4 (Homo sapiens, UniProt Q9HAZ1)
[2] = molecular target: Rho-associated protein kinase 1 (Homo sapiens, UniProt Q13464);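 note: measured within a broad kinome-wide panel profiling many kinases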
[3] = molecular target: Serine/threonine-protein kinase pim-1 (Homo sapiens, UniProt P11309)
LIM domain kinase 1 = LIM domain kinase 1 (Homo sapiens, UniProt P53667); assay: Navigating the Kinome. Panel member name: LIMK1
[4] = molecular target: T1, Serine/threonine-protein kinase D3 (Homo sapiens, UniProt O94806);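 note: determined within a kinase panel screen, with PRKCN as the panel member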
T1 sequence (O94806 whole entry): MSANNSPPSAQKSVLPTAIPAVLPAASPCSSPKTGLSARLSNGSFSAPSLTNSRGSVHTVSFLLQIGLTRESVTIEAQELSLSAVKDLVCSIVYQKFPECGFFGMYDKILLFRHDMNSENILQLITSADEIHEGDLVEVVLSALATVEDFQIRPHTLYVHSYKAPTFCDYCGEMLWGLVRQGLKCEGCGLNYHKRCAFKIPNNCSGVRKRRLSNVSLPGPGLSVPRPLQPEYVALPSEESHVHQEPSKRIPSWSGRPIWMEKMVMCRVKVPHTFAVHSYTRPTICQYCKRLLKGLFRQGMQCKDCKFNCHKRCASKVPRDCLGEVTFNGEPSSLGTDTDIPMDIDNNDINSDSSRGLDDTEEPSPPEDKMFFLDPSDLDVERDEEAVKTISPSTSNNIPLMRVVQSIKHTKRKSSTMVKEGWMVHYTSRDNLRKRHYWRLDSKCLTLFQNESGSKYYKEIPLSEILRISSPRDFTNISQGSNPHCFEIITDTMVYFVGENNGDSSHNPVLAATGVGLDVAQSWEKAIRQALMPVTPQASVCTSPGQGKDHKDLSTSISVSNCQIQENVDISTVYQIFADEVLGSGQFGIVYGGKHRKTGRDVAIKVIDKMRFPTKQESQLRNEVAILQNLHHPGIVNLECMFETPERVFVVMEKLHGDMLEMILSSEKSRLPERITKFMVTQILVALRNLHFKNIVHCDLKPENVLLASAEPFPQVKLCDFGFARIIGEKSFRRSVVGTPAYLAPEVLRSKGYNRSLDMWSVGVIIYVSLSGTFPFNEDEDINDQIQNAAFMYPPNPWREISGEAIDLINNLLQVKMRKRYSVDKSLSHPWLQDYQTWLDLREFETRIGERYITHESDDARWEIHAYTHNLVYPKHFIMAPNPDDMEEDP

[5] = molecular target: Dual specificity tyrosine-phosphorylation-regulated kinase 1B (Homo sapiens, UniProt Q9Y463); assay: Navigating the Kinome. Panel member name: DYRK1B
[6] = molecular target: Cyclin-dependent kinase 8 (Homo sapiens, UniProt P49336); assay: Navigating the Kinome. Panel member name: CDK8
[7] = molecular target: Tyrosine-protein kinase Fyn (Homo sapiens, UniProt P06241)
[8] = molecular target: Tyrosine-protein kinase BTK (Homo sapiens, UniProt Q06187)
[9] = molecular target: ALK tyrosine kinase receptor (Homo sapiens, UniProt Q9UM73);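 note: ALK tested as one member of a kinase panel screen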
[10] = molecular target: T2, Serine/threonine-protein kinase Chk1 (Homo sapiens, UniProt O14757);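 note: measured as one member of a kinome-wide kinase profiling panel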
T2 sequence (O14757 whole entry): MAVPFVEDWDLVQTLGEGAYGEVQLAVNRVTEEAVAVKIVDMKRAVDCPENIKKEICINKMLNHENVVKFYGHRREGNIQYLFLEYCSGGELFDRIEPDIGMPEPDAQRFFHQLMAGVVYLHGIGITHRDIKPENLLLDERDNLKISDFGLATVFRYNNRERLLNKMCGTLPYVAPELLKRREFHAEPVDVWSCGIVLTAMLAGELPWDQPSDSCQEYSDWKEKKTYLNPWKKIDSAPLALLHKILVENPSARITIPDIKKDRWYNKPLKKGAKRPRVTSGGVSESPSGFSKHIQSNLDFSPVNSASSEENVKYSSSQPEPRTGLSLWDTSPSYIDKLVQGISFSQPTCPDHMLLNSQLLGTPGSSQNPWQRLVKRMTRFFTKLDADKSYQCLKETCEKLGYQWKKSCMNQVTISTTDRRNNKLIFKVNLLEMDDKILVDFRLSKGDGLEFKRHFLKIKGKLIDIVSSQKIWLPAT

[11] = molecular target: T3, Serine/threonine-protein kinase TAO1 (Homo sapiens, UniProt Q7L7X3)
T3 sequence (Q7L7X3 whole entry): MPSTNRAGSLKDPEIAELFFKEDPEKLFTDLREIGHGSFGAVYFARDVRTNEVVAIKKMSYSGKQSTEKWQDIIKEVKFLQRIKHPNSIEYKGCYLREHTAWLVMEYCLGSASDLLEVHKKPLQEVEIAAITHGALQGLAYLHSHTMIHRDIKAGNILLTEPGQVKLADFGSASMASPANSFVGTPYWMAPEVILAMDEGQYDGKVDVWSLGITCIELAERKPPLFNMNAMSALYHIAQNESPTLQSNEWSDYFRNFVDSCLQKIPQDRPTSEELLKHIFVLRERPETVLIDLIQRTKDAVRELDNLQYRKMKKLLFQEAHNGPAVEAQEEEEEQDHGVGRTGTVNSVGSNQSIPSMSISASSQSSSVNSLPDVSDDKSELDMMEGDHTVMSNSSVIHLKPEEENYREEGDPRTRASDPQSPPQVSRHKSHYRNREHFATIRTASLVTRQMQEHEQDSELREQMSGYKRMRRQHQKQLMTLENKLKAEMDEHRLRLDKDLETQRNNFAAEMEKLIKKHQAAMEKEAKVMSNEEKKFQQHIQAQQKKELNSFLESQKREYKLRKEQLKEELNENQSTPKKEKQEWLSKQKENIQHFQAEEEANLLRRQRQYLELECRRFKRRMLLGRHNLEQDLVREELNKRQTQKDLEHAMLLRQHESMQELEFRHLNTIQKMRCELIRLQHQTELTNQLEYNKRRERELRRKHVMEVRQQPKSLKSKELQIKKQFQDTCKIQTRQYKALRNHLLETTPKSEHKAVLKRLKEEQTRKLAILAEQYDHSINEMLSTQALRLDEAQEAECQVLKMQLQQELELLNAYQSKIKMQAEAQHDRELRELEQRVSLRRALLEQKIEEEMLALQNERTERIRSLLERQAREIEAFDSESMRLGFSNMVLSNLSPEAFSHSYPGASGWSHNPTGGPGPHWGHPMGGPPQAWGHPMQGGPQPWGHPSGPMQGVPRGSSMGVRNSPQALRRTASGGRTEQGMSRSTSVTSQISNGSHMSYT

[12] = molecular target: Mitogen-activated protein kinase 8 (Homo sapiens, UniProt P45983);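 note: value comes from one member of a kinome-wide kinase profiling panel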
[13] = molecular target: Death-associated protein kinase 3 (Homo sapiens, UniProt O43293);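 note: measured as one member of a kinome-wide profiling panel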

Mitogen-activated protein kinase 8, sequence (P45983 whole entry): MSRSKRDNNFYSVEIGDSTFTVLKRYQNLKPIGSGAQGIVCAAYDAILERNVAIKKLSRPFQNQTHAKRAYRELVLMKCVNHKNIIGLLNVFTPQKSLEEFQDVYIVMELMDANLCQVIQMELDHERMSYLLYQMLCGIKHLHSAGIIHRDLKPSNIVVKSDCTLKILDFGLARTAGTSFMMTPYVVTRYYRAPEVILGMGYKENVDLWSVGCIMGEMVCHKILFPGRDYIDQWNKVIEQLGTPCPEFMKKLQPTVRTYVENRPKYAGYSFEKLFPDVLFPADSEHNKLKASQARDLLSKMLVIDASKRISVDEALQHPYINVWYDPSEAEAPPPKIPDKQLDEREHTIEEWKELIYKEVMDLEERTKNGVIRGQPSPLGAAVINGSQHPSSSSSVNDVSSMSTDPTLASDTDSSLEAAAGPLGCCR
Rho-associated protein kinase 1, sequence (Q13464 whole entry): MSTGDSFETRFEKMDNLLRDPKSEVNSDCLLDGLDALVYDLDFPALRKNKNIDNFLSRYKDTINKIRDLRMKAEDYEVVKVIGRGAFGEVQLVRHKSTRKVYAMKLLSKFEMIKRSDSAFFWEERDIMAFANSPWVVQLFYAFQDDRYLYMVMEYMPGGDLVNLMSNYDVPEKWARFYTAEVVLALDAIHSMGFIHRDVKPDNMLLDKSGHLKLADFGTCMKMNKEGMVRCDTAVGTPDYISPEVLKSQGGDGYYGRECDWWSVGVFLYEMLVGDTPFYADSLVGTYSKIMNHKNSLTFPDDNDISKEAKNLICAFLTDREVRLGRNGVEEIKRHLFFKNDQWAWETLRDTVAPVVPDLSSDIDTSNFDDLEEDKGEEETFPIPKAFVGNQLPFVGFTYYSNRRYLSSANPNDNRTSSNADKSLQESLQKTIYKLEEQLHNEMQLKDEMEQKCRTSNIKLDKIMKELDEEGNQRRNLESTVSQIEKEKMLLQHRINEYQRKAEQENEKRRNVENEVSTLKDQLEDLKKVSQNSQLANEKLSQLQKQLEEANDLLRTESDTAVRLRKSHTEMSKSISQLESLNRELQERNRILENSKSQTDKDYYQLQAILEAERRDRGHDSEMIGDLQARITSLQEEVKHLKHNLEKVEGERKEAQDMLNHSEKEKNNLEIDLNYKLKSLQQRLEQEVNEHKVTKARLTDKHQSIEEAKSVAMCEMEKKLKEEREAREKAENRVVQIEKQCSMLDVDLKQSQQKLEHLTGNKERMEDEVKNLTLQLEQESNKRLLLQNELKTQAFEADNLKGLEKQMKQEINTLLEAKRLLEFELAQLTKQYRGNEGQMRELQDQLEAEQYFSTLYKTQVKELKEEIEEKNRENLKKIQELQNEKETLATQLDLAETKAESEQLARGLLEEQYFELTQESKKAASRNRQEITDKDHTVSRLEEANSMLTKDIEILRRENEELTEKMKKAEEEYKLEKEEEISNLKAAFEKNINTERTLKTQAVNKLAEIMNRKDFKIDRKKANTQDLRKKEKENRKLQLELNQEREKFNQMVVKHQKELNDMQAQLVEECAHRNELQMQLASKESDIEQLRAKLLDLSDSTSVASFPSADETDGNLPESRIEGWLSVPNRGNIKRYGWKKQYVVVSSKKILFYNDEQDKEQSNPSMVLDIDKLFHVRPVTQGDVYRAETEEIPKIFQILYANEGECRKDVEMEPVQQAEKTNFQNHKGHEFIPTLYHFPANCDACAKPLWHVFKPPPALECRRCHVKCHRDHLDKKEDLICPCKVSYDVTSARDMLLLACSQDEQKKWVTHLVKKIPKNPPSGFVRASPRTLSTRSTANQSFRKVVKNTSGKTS
Dual specificity tyrosine-phosphorylation-regulated kinase 1B, sequence (Q9Y463 whole entry): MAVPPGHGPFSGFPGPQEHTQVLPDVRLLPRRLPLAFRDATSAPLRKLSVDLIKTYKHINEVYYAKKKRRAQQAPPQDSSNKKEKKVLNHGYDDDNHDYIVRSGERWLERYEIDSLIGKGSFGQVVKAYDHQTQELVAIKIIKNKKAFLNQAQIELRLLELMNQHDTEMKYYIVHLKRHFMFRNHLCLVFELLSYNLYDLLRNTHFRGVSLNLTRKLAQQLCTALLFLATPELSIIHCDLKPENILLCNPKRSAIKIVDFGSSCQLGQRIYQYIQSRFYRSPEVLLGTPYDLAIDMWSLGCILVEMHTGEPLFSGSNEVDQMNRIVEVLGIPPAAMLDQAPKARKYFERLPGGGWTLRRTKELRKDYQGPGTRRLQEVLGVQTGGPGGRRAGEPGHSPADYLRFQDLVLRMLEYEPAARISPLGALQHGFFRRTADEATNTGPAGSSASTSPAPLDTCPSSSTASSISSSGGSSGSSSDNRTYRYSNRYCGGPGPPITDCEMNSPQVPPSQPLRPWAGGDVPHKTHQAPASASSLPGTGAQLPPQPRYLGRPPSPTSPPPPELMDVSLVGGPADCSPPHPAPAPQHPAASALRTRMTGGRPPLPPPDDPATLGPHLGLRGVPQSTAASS
ALK tyrosine kinase receptor, sequence (Q9UM73 whole entry): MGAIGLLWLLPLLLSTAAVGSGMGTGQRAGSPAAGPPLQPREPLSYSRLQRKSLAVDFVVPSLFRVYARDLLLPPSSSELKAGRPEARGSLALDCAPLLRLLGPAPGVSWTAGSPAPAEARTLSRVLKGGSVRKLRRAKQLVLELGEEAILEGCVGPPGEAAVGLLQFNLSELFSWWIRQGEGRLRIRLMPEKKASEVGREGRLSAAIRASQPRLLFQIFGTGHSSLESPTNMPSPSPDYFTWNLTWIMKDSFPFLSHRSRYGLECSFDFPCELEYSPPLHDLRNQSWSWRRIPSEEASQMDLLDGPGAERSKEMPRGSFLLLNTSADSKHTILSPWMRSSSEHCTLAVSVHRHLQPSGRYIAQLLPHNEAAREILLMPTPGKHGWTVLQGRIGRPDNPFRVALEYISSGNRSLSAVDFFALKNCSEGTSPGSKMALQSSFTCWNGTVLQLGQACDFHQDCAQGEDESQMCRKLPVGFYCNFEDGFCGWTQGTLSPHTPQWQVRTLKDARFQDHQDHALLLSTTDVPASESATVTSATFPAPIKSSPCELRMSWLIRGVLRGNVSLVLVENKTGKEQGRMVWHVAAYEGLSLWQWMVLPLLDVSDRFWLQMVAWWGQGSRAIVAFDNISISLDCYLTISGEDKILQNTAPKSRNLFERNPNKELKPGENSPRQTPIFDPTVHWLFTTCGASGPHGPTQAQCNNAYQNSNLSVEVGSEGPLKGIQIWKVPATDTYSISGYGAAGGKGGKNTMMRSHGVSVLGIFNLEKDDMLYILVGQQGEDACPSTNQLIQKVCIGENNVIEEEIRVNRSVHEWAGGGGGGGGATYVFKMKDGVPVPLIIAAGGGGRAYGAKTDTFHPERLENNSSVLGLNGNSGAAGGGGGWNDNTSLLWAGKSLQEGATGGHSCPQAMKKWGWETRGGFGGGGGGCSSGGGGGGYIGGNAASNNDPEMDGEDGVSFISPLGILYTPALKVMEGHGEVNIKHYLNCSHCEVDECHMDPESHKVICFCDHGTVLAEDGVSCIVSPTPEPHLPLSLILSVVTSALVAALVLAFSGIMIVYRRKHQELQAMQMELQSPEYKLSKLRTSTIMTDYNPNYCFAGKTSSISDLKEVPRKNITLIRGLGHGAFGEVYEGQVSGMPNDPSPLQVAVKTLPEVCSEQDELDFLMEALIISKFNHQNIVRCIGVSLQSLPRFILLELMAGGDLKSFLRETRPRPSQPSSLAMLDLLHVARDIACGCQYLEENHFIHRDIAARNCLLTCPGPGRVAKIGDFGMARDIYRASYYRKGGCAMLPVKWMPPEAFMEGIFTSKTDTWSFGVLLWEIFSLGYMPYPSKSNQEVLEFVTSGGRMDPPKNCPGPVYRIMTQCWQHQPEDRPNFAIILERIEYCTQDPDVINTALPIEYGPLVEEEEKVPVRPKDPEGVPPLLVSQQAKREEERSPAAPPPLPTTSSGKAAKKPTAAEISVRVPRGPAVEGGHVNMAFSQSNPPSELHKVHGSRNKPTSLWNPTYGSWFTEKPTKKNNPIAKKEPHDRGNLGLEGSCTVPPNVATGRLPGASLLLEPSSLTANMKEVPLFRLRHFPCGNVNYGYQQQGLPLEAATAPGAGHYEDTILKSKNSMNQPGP
Tyrosine-protein kinase BTK, sequence (Q06187 whole entry): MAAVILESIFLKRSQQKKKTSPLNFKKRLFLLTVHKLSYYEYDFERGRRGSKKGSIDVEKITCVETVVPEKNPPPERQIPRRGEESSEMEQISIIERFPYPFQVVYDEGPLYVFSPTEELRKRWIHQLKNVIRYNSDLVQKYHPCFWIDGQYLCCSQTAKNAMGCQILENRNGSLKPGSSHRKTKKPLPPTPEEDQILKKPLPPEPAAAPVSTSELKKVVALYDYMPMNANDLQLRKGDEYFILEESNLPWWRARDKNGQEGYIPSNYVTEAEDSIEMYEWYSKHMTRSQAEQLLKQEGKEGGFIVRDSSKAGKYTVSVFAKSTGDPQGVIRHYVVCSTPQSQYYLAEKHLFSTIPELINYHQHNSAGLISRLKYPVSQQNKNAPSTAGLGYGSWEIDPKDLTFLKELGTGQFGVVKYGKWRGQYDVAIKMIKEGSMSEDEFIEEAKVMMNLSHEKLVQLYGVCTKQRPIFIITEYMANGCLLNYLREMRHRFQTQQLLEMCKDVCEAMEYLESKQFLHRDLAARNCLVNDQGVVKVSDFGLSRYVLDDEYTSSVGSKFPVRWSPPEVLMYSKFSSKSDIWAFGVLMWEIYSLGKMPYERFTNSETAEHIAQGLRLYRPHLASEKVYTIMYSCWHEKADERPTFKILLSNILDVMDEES
Serine/threonine-protein kinase pim-1, sequence (P11309 whole entry, the tested form may be a part): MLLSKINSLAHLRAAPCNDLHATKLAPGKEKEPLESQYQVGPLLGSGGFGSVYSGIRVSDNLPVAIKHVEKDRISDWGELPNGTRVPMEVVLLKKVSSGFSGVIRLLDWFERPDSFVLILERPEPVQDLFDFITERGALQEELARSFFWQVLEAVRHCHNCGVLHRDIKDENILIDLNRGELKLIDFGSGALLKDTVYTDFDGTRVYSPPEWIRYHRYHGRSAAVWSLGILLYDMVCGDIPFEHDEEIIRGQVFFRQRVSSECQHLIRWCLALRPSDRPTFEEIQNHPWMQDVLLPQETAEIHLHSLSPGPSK

SMILES | Ki [1] | Ki [2] | Ki [3] | Ki (LIM domain kinase 1) | Ki [4] | Ki [5] | Ki [6] | Ki [7] | Ki [8] | Ki [9] | Ki [10] | Ki [11] | Ki [12] | Ki [13]
CS(=O)(=O)N(Cc1ccc2[nH]c(=O)c3cccn3c2c1)C1CC1 | > 6.31 µM (inactive) | > 6.31 µM (inactive) | > 5.01 µM (inactive) | > 3.16 µM (inactive) | > 2 µM (inactive) | > 2.51 µM (inactive) | > 3.98 µM (inactive) | > 3.16 µM (inactive) | > 3.16 µM (inactive) | > 3.16 µM (inactive) | > 6.31 µM (inactive) | > 3.98 µM (inactive) | > 3.16 µM (inactive) | > 3.16 µM (inactive)
CS(=O)(=O)Nc1ccc(Nc2ccc3[nH]nc(N)c3c2)cc1 | 0.501 µM (active) | 1.58 µM (active) | > 6.31 µM (inactive) | 0.501 µM (active) | 3.16 µM (active) | 1.26 µM (active) | 2.51 µM (active) | > 6.31 µM (inactive) | > 6.31 µM (inactive) | > 6.31 µM (inactive) | 2 µM (active) | > 6.31 µM (inactive) | > 5.01 µM (inactive) | > 5.01 µM (inactive)
O=C(Nc1n[nH]c2ccc(-c3cn(Cc4ccccc4)nn3)cc12)c1cc(F)ccc1F | 0.01 µM (active) | > 2 µM (inactive) | 3.98 µM (active) | > 3.16 µM (inactive) | > 3.98 µM (inactive) | 0.00501 µM (active) | > 3.98 µM (inactive) | > 6.31 µM (inactive) | > 6.31 µM (inactive) | > 6.31 µM (inactive) | > 3.16 µM (inactive) | > 6.31 µM (inactive) | 0.501 µM (active) | 0.0501 µM (active)
